Measurements reported in PubChem BioAssay (NCI).
“And” between values parts separate entries of the source, which are not always exact repeats. Equal values may be shown once.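 48-hour exposure; five concentrations; linearly interpolated endpoints. Abbreviation: GI50, concentration required for 50% inhibition of growth. The concentration for full growth arrest is given as TGI.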

Assays:
Experiment in all cases: NCI tumour cell line growth inhibition, 48 h
[1] = system: A498 renal
[2] = system: ACHN renal
[3] = system: CAKI-1 renal
[4] = system: MDA-MB-231 breast
[5] = system: OVCAR-3 ovarian
[6] = system: SK-OV-3 ovarian
[7] = system: SNB-19 CNS
[8] = system: U251 CNS

Structure (SMILES)	GI50 [1]	TGI [1]	GI50 [2]	TGI [2]	GI50 [3]	TGI [3]	GI50 [4]	TGI [4]	GI50 [5]	TGI [5]	GI50 [6]	TGI [6]	GI50 [7]	TGI [7]	GI50 [8]	TGI [8]
COc1cc(C2NC(=O)C(C#N)=C(Nc3cccc(C)c3)S2)ccc1O (stereo unspecified)	> 100 µM	> 100 µM	> 100 µM	> 100 µM	> 100 µM	> 100 µM	> 100 µM	> 100 µM	> 100 µM	> 100 µM	> 100 µM	> 100 µM	> 100 µM	> 100 µM	> 100 µM	> 100 µM
O=C1Cc2cc(CCN3CCNCC3)c(Cl)cc2N1	2.85 µM	> 100 µM	> 100 µM	> 100 µM	6.11 µM	> 100 µM	3.9 µM	> 100 µM	14.1 µM	> 100 µM	> 100 µM	> 100 µM	23.7 µM	> 100 µM	7.79 µM	> 100 µM
CSc1nc(SC)c2c(C)cn(COCCOC(=O)c3ccccc3)c2n1		> 100 µM		> 100 µM		> 100 µM		> 100 µM		> 100 µM		> 100 µM		> 100 µM		> 100 µM
CCc1c(C)c2cc(-n3c(-c4ccc(OC)cc4)csc3=N)c(O)c(C)c2oc1=O	1.94 µM	8.72 µM	1.53 µM	3.6 µM			1.52 µM	6.39 µM	1.19 µM	3.08 µM	2.85 µM	34.4 µM	2.36 µM	8.86 µM	1.77 µM	6.09 µM
COc1ccc(/C=C/c2ccnc3ccccc23)cc1OC		23.6 µM		> 100 µM		29.3 µM				26.6 µM		92.8 µM		31.2 µM		> 100 µM
CNc1cc(-c2cccc(OC(F)(F)F)c2)nc2ccc(N3CCCC3)cc12	1.17 µM and 1.61 µM and 1.66 µM	2.41 µM and 3 µM and 3.08 µM	1.61 µM and 1.63 µM and 1.74 µM	2.96 µM and 2.98 µM and 3.12 µM	1.57 µM and 1.53 µM and 1.6 µM	2.91 µM and 2.88 µM and 2.97 µM	1.72 µM and 1.7 µM and 1.46 µM	3.23 µM and 3.14 µM and 2.95 µM	1.69 µM and 1.92 µM and 1.86 µM	3.14 µM and 3.6 µM and 3.39 µM	1.66 µM and 1.67 µM and 1.74 µM	3.04 µM and 3.03 µM and 3.14 µM	1.9 µM and 1.81 µM and 1.88 µM	3.57 µM and 3.22 µM and 3.36 µM	1.58 µM and 1.69 µM and 1.67 µM	3.07 µM and 3.08 µM and 3.11 µM
Fc1ccc(Nc2nc(Nc3ccc(-c4nc5ccccc5[nH]4)cc3)c3cn[nH]c3n2)cc1	14.6 µM	27.7 µM	2.05 µM	5.08 µM	1.97 µM	5.41 µM			1.94 µM	4.42 µM	5.03 µM	17.5 µM	3.16 µM	9.61 µM	2.1 µM	4.34 µM
COc1ccc(C(O)c2ccccn2)cc1 (stereo unspecified)		> 100 µM		> 100 µM		> 100 µM		> 100 µM		> 100 µM		> 100 µM		> 100 µM		> 100 µM
CSc1ccc(C(=O)/C=C/c2ccc(Cl)cc2Cl)cc1	20.3 µM	51.3 µM	23.7 µM	55.6 µM	33.4 µM	92 µM	27.7 µM	86.9 µM	21.9 µM	49.2 µM					16.9 µM	32 µM
